The values that follow come from publication PMC6642140, “Boosting NAD^+ with a small molecule that activates NAMPT” (Nature Communications, 2019).

What all share (assay type): biochemical
Assay [1] addresses T1, NAMPT (nicotinamide phosphoribosyltransferase) (Homo sapiens, UniProt P43490).
T1 construct: recombinant, N-terminal His tag removed with thrombin
Put plainly: NMN production LC-MS/MS assay with […] NAD+ (feedback inhibition).

Assay [2] deals with T1, NAMPT (nicotinamide phosphoribosyltransferase). Put plainly: LC-MS/MS of the reversible reaction; suppresses pHisNAMPT in western blot and blunts P3 production.
Assay [3] has the same target. The experiment in a line: dose-dependent protein thermal shift and stimulation of NMN production.
Assay [4] shares this target. The experiment in a line: NMN production fluorescence assay at […] compound (slight inhibition).
Assay [5] shares this target. Put plainly: spin desalting column with LC-MS detection of bound compound; EC50 from NMN production activation assay. The source says:
spin desalting column with LC-MS detection of bound compound; EC50 from NMN production activation assay on NAMPT (nicotinamide phosphoribosyltransferase) | When NAMPT and SBI-797812 were mixed and applied to the column, SBI-797812 was detected in the column eluent

T1 sequence (P43490 whole entry): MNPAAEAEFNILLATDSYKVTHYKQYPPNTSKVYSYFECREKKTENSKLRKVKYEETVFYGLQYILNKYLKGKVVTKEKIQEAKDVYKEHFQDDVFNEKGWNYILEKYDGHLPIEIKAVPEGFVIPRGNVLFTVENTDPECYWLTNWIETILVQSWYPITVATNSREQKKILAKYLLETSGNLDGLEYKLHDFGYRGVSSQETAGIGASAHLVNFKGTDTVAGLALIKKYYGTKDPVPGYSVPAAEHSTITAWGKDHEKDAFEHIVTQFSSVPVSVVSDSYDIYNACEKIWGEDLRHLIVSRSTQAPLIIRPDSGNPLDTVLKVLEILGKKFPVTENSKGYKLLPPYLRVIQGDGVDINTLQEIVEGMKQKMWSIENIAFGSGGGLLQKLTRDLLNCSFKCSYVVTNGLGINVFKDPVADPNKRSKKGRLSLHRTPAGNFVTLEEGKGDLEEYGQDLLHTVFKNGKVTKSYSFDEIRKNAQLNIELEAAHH

In the case of `NC(=O)c1ccc[n+]([C@@H]2O[C@H](COP(=O)([O-])OP(=O)(O)OC[C@H]3O[C@@H](n4cnc5c(N)ncnc54)[C@H](O)[C@@H]3O)[C@@H](O)[C@H]2O)c1` [NAD^+], the “NMN production LC-MS/MS assay with 250 μM NAD+ (feedback inhibition)” value in assay [1] is “SBI-797812 relieved NAMPT inhibition mediated by NAD^+ (Fig. 2e)”.

For the compound `NC(=O)c1ccc[n+]([C@@H]2O[C@H](COP(=O)([O-])O)[C@@H](O)[C@H]2O)c1` [NMN], the “LC-MS/MS of the reversible reaction; suppresses pHisNAMPT in western blot and bl” value in assay [2] is listed as “While the pHisNAMPT band was suppressed by NMN or PP, NAM or PRPP had no effect”.

Take `CCOC(=O)c1ccc(NC(=O)NCc2ccncc2)cc1` [SBI-136892]: the “dose-dependent protein thermal shift and stimulation of NMN production” value in assay [3] is “SBI-136892 (Fig. 1b), dose-dependently increased the NAMPT Tm (Supplementary Fig. 1a) and stimulated NAMPT-mediated NMN production”.

Regarding `O=C(NCc1ccccn1)Nc1ccc(S(=O)(=O)N2CC3CCC(C2)O3)cc1` [SBI-796950], the “NMN production fluorescence assay at 2 μM compound (slight inhibition)” value in assay [4] was “The SBI-797812 isomer with the 2-pyridyl group, SBI-796950 (Fig. 1b), slightly inhibited NMN production (Fig. 1c)”.

One may read the EC50 as the concentration needed to bring the measured effect to its halfway point. Regarding `O=C(NCc1ccncc1)Nc1ccc(S(=O)(=O)N2CC3CCC(C2)O3)cc1` [SBI-797812], the EC50 in assay [5] stood at 370 ± 60 nM.
